Source: article doi:10.1101/2022.07.18.500363v1 (biorxiv, 2022)
Read-outs that look alike come from different tables or passages of the source.

Target: PL^pro (papain-like protease, domain of nsp3) (Severe acute respiratory syndrome coronavirus 2, UniProt P0DTD1)
Experiment: fluorogenic short peptide protease assay, 384-well
Assay type: biochemical

Compound	IC50 [µM]	IC50 (read-out: IC50PLpro, short peptide substrate, 37 °C, 10-60 min preincubation) [µM]
COc1cc(C(=O)NS(=O)(=O)c2ccccc2C)ccc1Cc1cn(C)c2ccc(NC(=O)OC3CCCC3)cc12 [DDL-715, zafirlukast]	~24	
CC1=NN(c2ccc(C)c(C)c2)C(=O)C1=NNc1cccc(-c2cccc(C(=O)O)c2)c1O [DDL-701, eltrombopag]	13	
CC1=NN(c2ccc(C)c(C)c2)C(=O)/C1=N/Nc1cccc(-c2cccc(-c3nnn[nH]3)c2)c1O [DDL-713, thrombopoietin receptor agonist-1]		~54
